PMC11412489, “Coumarin derivatives as new anti-biofilm agents against Staphylococcus aureus” (PLOS ONE, 2024)
Where two headings read alike, the source gives them in different places.

Assays:
Assay type in all cases: cell-based, Staphylococcus aureus
S. aureus = test: Antibacterial activity (bacterial growth inhibition); conditions: at 100 μg/mL; for inhibition at 100 µg/mL: Staphylococcus aureus, read-out: Antibacterial Activity (% Inhibition ± SEM)
[1] = tested on: biofilm of S. aureus ATCC 6538; test: 96-well plate crystal violet assay for biofilm inhibition; conditions: for inhibition at 3.125 µg/mL / inhibition at 6.25 µg/mL / inhibition at 12.5 µg/mL / inhibition at 25 µg/mL / inhibition at 50 µg/mL / inhibition at 100 µg/mL: Staphylococcus aureus, ATCC6538
Protocol: The quantitative determination of biofilm inhibition was carried out by the crystal violet assay on a sterile 96-well plate with slight modifications. The glycerol stock of S. aureus was revived overnight at 37°C at 80 rpm. The overnight culture was then diluted 100 folds in fresh BHI broth, supplemented with 0.25% glucose. The cell density was adjusted to 1×10^7 and 195μL of the cell suspension was added in 96-well plate. […] Following that, the plate was washed with sterile distilled water in order to decant the non-adherent cells, and media. The plate was then dried at 60°C for 1 hour, and 200 μL of 0.1% (w/v) crystal violet was added to stain biofilm for 20 minutes. The plate was washed again, air dried, and dispensed 30% (v/v) acetic acid in each well to dissolve the biofilm. The inhibition of biofilm formation was analyzed by measuring the absorbance at 595 nm using the microplate reader (Multiskan Sky, Thermo Scientific, USA). The percent inhibition of biofilm formation was calculated via the following formula: 100−ƛTreated−ƛBlank/ƛControl−ƛBlank×100 Whereƛ=absorbance

S. aureus biofilm = test: Atomic force microscopy analysis of biofilm disruption; conditions: compared to control S. aureus cells, 24 hours
Protocol: The size and structure of disrupted biofilm was analyzed. Briefly, a pure single colony of S. aureus was inoculated in BHI broth and grown for 18–24 hours at 37°C. Following incubation, the cells were diluted in BHI broth, and density was adjusted to 1×10^7 before loading on a sterile silicon chip placed in 24-well plate, then silicon chips were treated with active compounds. The plate was then sealed, and placed in an incubator for 24 hours at 37°C. After incubation, the treated silicon chips were washed with autoclaved distilled water thrice, air dried, and the samples were analyzed by atomic force microscope (Agilent Technologies, USA).

[2] = tested on: biofilm cells of the S. aureus strain (ATCC 6538); test: Biofilm analysis by fluorescence microscopy (SYTO-9/PI); conditions: SYTO-9/PI staining, S. aureus ATCC 6538, 24 hours
Protocol: Briefly, 1×10^7 cells were loaded in 96-well plate, and treated with active compounds. Plate was sealed, and incubated for 24 hours at 37°C. Following incubation, plate was washed with sterile distilled water, and cells were stained with […] SYTO-9 and 5 μM PI, for 30 minutes in dark at room temperature. After incubation, the wells were washed again, and air dried. Images were taken, and then visualized by Nikon Eclipse TE2000, USA [23]. Propidium Iodide (PI) staining indicates membrane integrity, as it can only pass through compromised membranes of non-viable cells, giving red fluorescence. On the contrary, Syto-9 can pass through all cells despite of their membrane integrity, and binds to DNA/RNA by emitting green fluorescence.

[3] = S. aureus ATCC 6538, replicate 1, read-out: % Inhibition 1
[4] = S. aureus ATCC 6538, replicate 2, read-out: % Inhibition 2
[5] = S. aureus ATCC 6538, replicate 3, read-out: % Inhibition 3
[6] = S. aureus ATCC 6538, read-out: Mean % Inhibition
[7] = 100 µg/mL, S. aureus ATCC 6538, replicate 1, read-out: % Inhibition 1
[8] = 100 µg/mL, S. aureus ATCC 6538, replicate 2, read-out: % Inhibition 2
[9] = 100 µg/mL, S. aureus ATCC 6538, replicate 3, read-out: % Inhibition 3
[10] = 100 µg/mL, S. aureus ATCC 6538, read-out: Mean % Inhibition
[11] = at 100 μg/mL, biofilm of S. aureus, 24 hours, read-out: Antibiofilm Activity (% Inhibition ± SEM)
[12] = at 100 μg/mL, biofilm of S. aureus, 24 hours

Structure (SMILES) | inhibition at 100 µg/mL (S. aureus) [%] | Antibacterial Activity (% Inhibition ± SEM) (S. aureus) | inhibition at 3.125 µg/mL [1, 3] [%] | inhibition at 3.125 µg/mL [1, 4] [%] | inhibition at 3.125 µg/mL [1, 5] [%] | inhibition at 3.125 µg/mL [1, 6] [%] | inhibition at 6.25 µg/mL [1, 3] [%] | inhibition at 6.25 µg/mL [1, 4] [%] | inhibition at 6.25 µg/mL [1, 5] [%] | inhibition at 6.25 µg/mL [1, 6] [%] | inhibition at 12.5 µg/mL [1, 3] [%] | inhibition at 12.5 µg/mL [1, 4] [%] | inhibition at 12.5 µg/mL [1, 5] [%] | inhibition at 12.5 µg/mL [1, 6] [%] | inhibition at 25 µg/mL [1, 3] [%] | inhibition at 25 µg/mL [1, 4] [%] | inhibition at 25 µg/mL [1, 5] [%] | inhibition at 25 µg/mL [1, 6] [%] | inhibition at 50 µg/mL [1, 3] [%] | inhibition at 50 µg/mL [1, 4] [%] | further results
C/C(=N\Nc1nc(-c2ccc(Br)cc2)cs1)c1cc2ccccc2oc1=O [Compound 10, (E)-3-(1-(2-(4-(4-Bromophenyl)thiazol-2-yl)hydrazono)ethyl)-2H-chromen-2-one] | 18 ± 3.73 | low antibacterial effect | 1.98 | 1.44 | 1.54 | 1.65 | 5.34 | 4.99 | 5.53 | 5.29 | 7.56 | 7.29 | 7.21 | 7.35 | 2.34 | 2.21 | 2.09 | 2.21 | 39.5 | 39.8 | inhibition at 50 µg/mL [1, 5]: 39.8%; inhibition at 50 µg/mL [1, 6]: 39.7%; inhibition at 100 µg/mL [1, 7]: 69.4%; inhibition at 100 µg/mL [1, 8]: 69.5%; inhibition at 100 µg/mL [1, 9]: 68.9%; inhibition at 100 µg/mL [1, 10]: 69.3%; inhibition at 100 µg/mL [1, 11]: 69 ± 9.34%; Antibiofilm Activity (% Inhibition ± SEM) [1, 12]: high potential to inhibit the biofilms; Biofilm disruption seen by AFM (S. aureus biofilm): Disrupted biofilm surfaces; Biofilm disruption seen by fluorescence microscopy [2]: Disruption on the surface of biofilm
O=c1oc2ccccc2cc1-c1csc(N/N=C/c2cc(Cl)cc(Br)c2)n1 [Compound 17, (E)-3-(2-(2-(3-Bromo-5-chlorobenzylidene)hydrazinyl)thiazol-4-yl)-2H-chromen-2-one] | 20 ± 4.64 | low antibacterial effect | 1.64 | 1.36 | 1.84 | 1.61 | 3.64 | 3.52 | 3.97 | 3.71 | 0.03 | 0.03 | 0.01 | 0.0233 | 15.9 | 15.1 | 16.9 | 15.9 | 55.1 | 53 | inhibition at 50 µg/mL [1, 5]: 57%; inhibition at 50 µg/mL [1, 6]: 55%; inhibition at 100 µg/mL [1, 7]: 77.9%; inhibition at 100 µg/mL [1, 8]: 77.6%; inhibition at 100 µg/mL [1, 9]: 82.3%; inhibition at 100 µg/mL [1, 10]: 79.3%; inhibition at 100 µg/mL [1, 11]: 69 ± 1.75%; Antibiofilm Activity (% Inhibition ± SEM) [1, 12]: high potential to inhibit the biofilms; Biofilm disruption seen by AFM (S. aureus biofilm): Disrupted biofilm surfaces; Biofilm disruption seen by fluorescence microscopy [2]: Disruption on the surface of biofilm
